Measurements from patent US10213427B2 (Incyte Corporation, priority 2010, dated 2019).

Biological target: FGFR3 enzyme (Millipore) (Homo sapiens (Human), UniProt P22607)
Assay: FGFR3 Enzymatic Assay
Format: biochemical
Details: FRET peptide phosphorylation, 140 μM ATP
Method: The inhibitor potency of compounds of the invention was measured in an enzyme assay that measures peptide phosphorylation using FRET measurements to detect product formation. Inhibitors were serially diluted in DMSO and a volume of 0.5 μL was transferred to the wells of a 384-well plate. A 10 μL volume of FGFR3 enzyme (Millipore) diluted in assay buffer (50 mM HEPES, 10 mM MgCl2, 1 mM EGTA, 0.01% Tween-20, 5 mM DTT, pH 7.5) was added to the plate and pre-incubated for 5-10 minutes. Appropriate controls (enzyme blank and enzyme with no inhibitor) were included on the plate. […] The plate was incubated at 25° C. for 1 hr. […] The plate was allowed to equilibrate for ˜1 hr before scanning the wells on a PheraStar plate reader.
GraphPad prism3 was used to analyze the data. The IC50 values were derived by fitting the data to the equation for a sigmoidal dose-response with a variable slope. Y=Bottom+(Top−Bottom)/(1+10^((Log IC50−X)*HillSlope)) where X is the logarithm of concentration and Y is the response.

Sequence of FGFR3 enzyme (Millipore) (P22607 23-806): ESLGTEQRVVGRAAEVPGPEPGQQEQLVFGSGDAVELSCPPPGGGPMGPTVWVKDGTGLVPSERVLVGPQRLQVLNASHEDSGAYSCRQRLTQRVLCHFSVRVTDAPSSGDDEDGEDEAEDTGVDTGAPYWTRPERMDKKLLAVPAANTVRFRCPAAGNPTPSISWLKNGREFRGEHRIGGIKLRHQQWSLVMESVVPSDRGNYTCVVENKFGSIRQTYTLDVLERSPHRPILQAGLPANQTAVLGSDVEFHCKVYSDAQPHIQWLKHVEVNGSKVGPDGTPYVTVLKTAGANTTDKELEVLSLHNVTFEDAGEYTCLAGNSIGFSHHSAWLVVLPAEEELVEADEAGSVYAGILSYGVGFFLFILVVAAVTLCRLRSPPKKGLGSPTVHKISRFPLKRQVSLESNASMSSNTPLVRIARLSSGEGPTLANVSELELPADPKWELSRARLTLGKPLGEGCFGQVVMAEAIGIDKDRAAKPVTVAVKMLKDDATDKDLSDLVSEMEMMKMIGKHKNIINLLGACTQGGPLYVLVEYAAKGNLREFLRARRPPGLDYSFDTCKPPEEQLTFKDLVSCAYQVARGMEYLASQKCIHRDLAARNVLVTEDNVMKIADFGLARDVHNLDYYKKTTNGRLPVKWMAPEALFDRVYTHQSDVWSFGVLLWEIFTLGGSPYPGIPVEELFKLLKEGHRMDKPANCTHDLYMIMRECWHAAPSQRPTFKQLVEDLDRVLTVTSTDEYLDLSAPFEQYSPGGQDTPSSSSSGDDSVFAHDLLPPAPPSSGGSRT

IC50 [nM] | SMILES
< 10 | O=C(NCC(F)(F)F)Nc1cccc(-n2cnc3cc(-c4cccc(C(=O)NCC5CCCO5)c4)ccc32)c1 (centres unmarked) [Example 2, N-(Tetrahydrofuran-2-ylmethyl)-3-{1-[3-({[(2,2,2-trifluoroethyl)amino]carbonyl}amino)phenyl]-1H-benzimidazol-5-yl}benzamide]
< 10 | CN1CCC(CNC(=O)c2cccc(-c3ccc4c(c3)ncn4-c3cccc(NC(=O)NCC(F)(F)F)c3)c2)CC1 [Example 3, N-[(1-Methylpiperidin-4-yl)methyl]-3-{1-[3-({[(2,2,2-trifluoroethyl)amino]carbonyl}amino)phenyl]-1H-benzimidazol-5-yl}benzamide]
< 10 | O=C(NCC(F)(F)F)Nc1cccc(-n2cnc3cc(-c4cccc(C(=O)NCCN5CCOCC5)c4)ccc32)c1 [Example 4, N-(2-Morpholin-4-ylethyl)-3-{1-[3-({[(2,2,2-trifluoroethyl)amino]carbonyl}amino)phenyl]-1H-benzimidazol-5-yl}benzamide]
< 10 | O=C(NCC(F)(F)F)Nc1cccc(-n2cnc3cc(-c4cccc(C(=O)NCc5cccnc5)c4)ccc32)c1 [Example 5, N-(Pyridin-3-ylmethyl)-3-{1-[3-({[(2,2,2-trifluoroethyl)amino]carbonyl}amino)phenyl]-1H-benzimidazol-5-yl}benzamide]
< 10 | Cn1ccnc1CNC(=O)c1cccc(-c2ccc3c(c2)ncn3-c2cccc(NC(=O)NCC(F)(F)F)c2)c1 [Example 6, N-[(1-Methyl-1H-imidazol-2-yl)methyl]-3-{1-[3-({[(2,2,2-trifluoroethyl)amino]carbonyl}amino)phenyl]-1H-benzimidazol-5-yl}benzamide]
< 10 | O=C(NCC(F)(F)F)Nc1cccc(-n2cnc3cc(-c4ccc(C(=O)NCC5CC5)cc4)ccc32)c1 [Example 7, N-(Cyclopropylmethyl)-4-{1-[3-({[(2,2,2-trifluoroethyl)amino]carbonyl}amino)phenyl]-1H-benzimidazol-5-yl}benzamide]
< 10 | O=C(NCC(F)(F)F)Nc1cccc(-n2cnc3cc(-c4ccc(C(=O)NCC5CCCO5)cc4)ccc32)c1 (centres unmarked) [Example 8, N-(Tetrahydrofuran-2-ylmethyl)-4-{1-[3-({[(2,2,2-trifluoroethyl)amino]carbonyl}amino)phenyl]-1H-benzimidazol-5-yl}benzamide]
< 10 | O=C(NCC(F)(F)F)Nc1cccc(-n2cnc3cc(-c4ccc(C(=O)NCC5CCCCC5O)cc4)ccc32)c1 (centres unmarked) [Example 9]
< 10 | CN1CCC(CNC(=O)c2ccc(-c3ccc4c(c3)ncn4-c3cccc(NC(=O)NCC(F)(F)F)c3)cc2)CC1 [Example 10, N-[(1-Methylpiperidin-4-yl)methyl]-4-{1-[3-({[(2,2,2-trifluoroethyl)amino]carbonyl}amino)phenyl]-1H-benzimidazol-5-yl}benzamide]
< 10 | O=C(NCC(F)(F)F)Nc1cccc(-n2cnc3cc(-c4ccc(C(=O)NCCN5CCOCC5)cc4)ccc32)c1 [Example 11, N-(2-Morpholin-4-ylethyl)-4-{1-[3-({[(2,2,2-trifluoroethyl)amino]carbonyl}amino)phenyl]-1H-benzimidazol-5-yl}benzamide]
< 10 | O=C(NCC(F)(F)F)Nc1cccc(-n2cnc3cc(-c4ccc(C(=O)NCc5cccnc5)cc4)ccc32)c1 [Example 12, N-(Pyridin-3-ylmethyl)-4-{1-[3-({[(2,2,2-trifluoroethyl)amino]carbonyl}amino)phenyl]-1H-benzimidazol-5-yl}benzamide]
< 10 | Cn1ccnc1CNC(=O)c1ccc(-c2ccc3c(c2)ncn3-c2cccc(NC(=O)NCC(F)(F)F)c2)cc1 [Example 13, N-[(1-Methyl-1H-imidazol-2-yl)methyl]-4-{1-[3-({[(2,2,2-trifluoroethyl)amino]carbonyl}amino)phenyl]-1H-benzimidazol-5-yl}benzamide]
< 10 | CNC(=O)C(C)c1ccc(-c2ccc3c(c2)ncn3-c2cccc(NC(=O)NCC(F)(F)F)c2)cc1 (centres unmarked) [Example 14, N-Methyl-2-(4-{1-[3-({[(2,2,2-trifluoroethyl)amino]carbonyl}amino)phenyl]-1H-benzimidazol-5-yl}phenyl)propanamide]
< 10 | CC(C(=O)N(C)C)c1ccc(-c2ccc3c(c2)ncn3-c2cccc(NC(=O)NCC(F)(F)F)c2)cc1 (centres unmarked) [Example 15, N,N-Dimethyl-2-(4-{1-[3-({[(2,2,2-trifluoroethyl)amino]carbonyl}amino)phenyl]-1H-benzimidazol-5-yl}phenyl)propanamide]
< 10 | CC(C(=O)NCC1CC1)c1ccc(-c2ccc3c(c2)ncn3-c2cccc(NC(=O)NCC(F)(F)F)c2)cc1 (centres unmarked) [Example 16, N-(Cyclopropylmethyl)-2-(4-{{1-[3-(([(2,2,2-trifluoroethyl)amino]carbonyl)}amino)phenyl]-1H-benzimidazol-5-yl}phenyl)propanamide]
< 10 | CC(C(=O)N1CCCC1)c1ccc(-c2ccc3c(c2)ncn3-c2cccc(NC(=O)NCC(F)(F)F)c2)cc1 (centres unmarked) [Example 17, N-(3-{5-[4-(1-Methyl-2-oxo-2-pyrrolidin-1-ylethyl)phenyl]-1H-benzimidazol-1-yl}phenyl)-N′-(2,2,2-trifluoroethyl)urea]
< 10 | CC(C(=O)NCC1CCCO1)c1ccc(-c2ccc3c(c2)ncn3-c2cccc(NC(=O)NCC(F)(F)F)c2)cc1 (centres unmarked) [Example 18, N-(Tetrahydrofuran-2-ylmethyl)-2-(4-{1-[3-({[(2,2,2-trifluoroethyl)amino]carbonyl}amino)phenyl]-1H-benzimidazol-5-yl}phenyl)propanamide]
< 10 | CC(C(=O)N1CCC(C#N)C1)c1ccc(-c2ccc3c(c2)ncn3-c2cccc(NC(=O)NCC(F)(F)F)c2)cc1 (centres unmarked) [Example 19, N-[3-(5-{4-[2-(3-Cyanopyrrolidin-1-yl)-1-methyl-2-oxoethyl]phenyl}-1H-benzimidazol-1-yl)phenyl]-N′-(2,2,2-trifluoroethyl)urea]
< 10 | CC(C(=O)NCc1nccn1C)c1ccc(-c2ccc3c(c2)ncn3-c2cccc(NC(=O)NCC(F)(F)F)c2)cc1 (centres unmarked) [Example 20, N-[(1-Methyl-1H-imidazol-2-yl)methyl]-2-(4-{1-[3-({[(2,2,2-trifluoroethyl)amino]carbonyl}amino)phenyl]-1H-benzimidazol-5-yl}phenyl)propanamide]
< 10 | O=C(NCC(F)(F)F)Nc1cccc(-n2cnc3cc(-c4cnn(C5CCN(CC6CC6)CC5)c4)ccc32)c1 [Example 21, N-[3-(5-{1-[1-(Cyclopropylmethyl)piperidin-4-yl]-1H-pyrazol-4-yl}-1H-benzimidazol-1-yl)phenyl]-N′-(2,2,2-trifluoroethyl)urea]
< 10 | N#CCC(n1cc(-c2ccc3c(c2)ncn3-c2cccc(NC(=O)NCC(F)(F)F)c2)cn1)C(F)(F)F (centres unmarked) [Example 22, N-[3-(5-{1-[1-(Cyanomethyl)-2,2,2-trifluoroethyl]-1H-pyrazol-4-yl}-1H-benzimidazol-1-yl)phenyl]-N′-(2,2,2-trifluoroethyl)urea]
< 10 | Cn1cc(C(=O)N2CCC(n3cc(-c4ccc5c(c4)ncn5-c4cccc(NC(=O)NCC(F)(F)F)c4)cn3)CC2)cn1 [Example 23, N-{3-[5-(1-{1-[(1-Methyl-1H-pyrazol-4-yl)carbonyl]piperidin-4-yl}-1H-pyrazol-4-yl)-1H-benzimidazol-1-yl]phenyl}-N′-(2,2,2-trifluoroethyl)urea]

SMILES | IC50 [nM]
O=C(NCC(F)(F)F)Nc1cccc(-n2cnc3cc(-c4cccc(C(=O)NCC5CC5)c4)ccc32)c1 [Example 1] | < 10
